According to patent publication US5378690A, “New renin-inhibitory oligopeptides, their preparation and their use” (Sankyo Company, Limited, priority 1986, dated 1995):

Biological target: T1, human renin (Homo sapiens, UniProt P00797)
T1 sequence (P00797 67-406): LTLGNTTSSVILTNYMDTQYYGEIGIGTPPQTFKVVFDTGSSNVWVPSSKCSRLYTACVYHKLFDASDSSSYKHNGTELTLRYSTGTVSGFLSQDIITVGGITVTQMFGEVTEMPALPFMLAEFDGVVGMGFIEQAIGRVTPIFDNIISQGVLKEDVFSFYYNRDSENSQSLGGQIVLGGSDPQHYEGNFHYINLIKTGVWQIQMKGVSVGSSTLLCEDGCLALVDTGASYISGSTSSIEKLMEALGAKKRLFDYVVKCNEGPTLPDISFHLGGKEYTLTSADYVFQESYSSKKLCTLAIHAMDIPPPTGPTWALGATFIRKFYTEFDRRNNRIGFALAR
Test: Inhibition of renin activity
Assay type: biochemical
Conditions: 1×10^-6 M of the test compound, sheep angiotensinogen, pH 7.3, 10 minutes at 37° C., mean of 3 or 4 experiments
Procedure: The ability of various compounds of the invention to inhibit the activity of renin was determined according to the following method, which follows essentially the procedure of Kokubu et al. [Hypertension, 5, 191-197 (1983)].
Specifically, each test compound was dissolved in 60% v/v aqueous ethanol. Human renin activity in the presence and absence of each compound was measured using sheep angiotensinogen. The total volume of 1 ml of assay mixture contained 0.1 mole/litre phosphate buffer (pH 7.3), human renin (equivalent to 0.5 ng angiotensin I per ml per minute), sheep angiotensinogen (equivalent to 200 ng angiotensin I) 1×10^-6 M of the test compound, 6% v/v ethanol and angiotensinase inhibitors (10 mmole/litre sodium ethylenediaminetetraacetate and 3.4 mmole/litre 8-hydroxyquinoline). The mixture was allowed to react for 10 minutes at 37° C., and then the reaction was stopped by placing the reaction tube in a boiling water bath for 5 minutes. The mixture was then centrifuged and the supernatant (0.05-0.1 ml) was used to assay remaining angiotensin I.
An identical experiment was carried out, as a control, except that the test compound was omitted. From the values obtained were calculated the % inhibition of renin activity achieved by each test compound. The results are shown in the following Table 9, in which the compounds of the invention are identified by the numbers of the Examples given hereafter in which are described their preparation. The values given are the mean of 3 or 4 experiments.

Compound | Inhibitory Activity (%)
O=C(C[C@H](O)[C@H](CC1CCCCC1)NC(=O)C(Cc1cscn1)NC(=O)[C@@H](CC(=O)N1CCOCC1)Cc1cccc2ccccc12)NCCN1CCOCC1 (mixture of isomers) [Example 2, N-{N-[(2R)-3-Morpholinocarbonyl-2-(1-naphthylmethyl)propionyl]-3-(4-thiazolyl)-DL-alanyl}-cyclostatin-(2-morpholinoethyl)amide] | 91.2
CC1CN(C(=O)C[C@@H](Cc2cccc3ccccc23)C(=O)NC(Cc2cscn2)C(=O)N[C@@H](CC2CCCCC2)[C@@H](O)CC(=O)NCCN2CCOCC2)CC(C)O1 (mixture of isomers) [Example 8, N-{N-[(2R)-2-(1-Naphthylmethyl)-3-(2,6-dimethylmorpholinocarbocyl)propionyl]-3-(4-thiazolyl)-DL-alanyl}-cyclostatin-(2-morpholinoethyl)amide] | 96.5
O=C(C[C@H](O)[C@H](CC1CCCCC1)NC(=O)C(Cc1cscn1)NC(=O)[C@@H](CC(=O)N1CCCCC1)Cc1cccc2ccccc12)NCCN1CCOCC1 (mixture of isomers) [Example 11, N-{N-[(2R)-2-(1-Naphthylmethyl)-3-(piperidinocarbonyl)propionyl]-3-(4-thiazolyl)-DL-alanyl}-cyclostatin-(2-morpholinoethyl)amide] | 96.9
O=C(C[C@H](O)[C@H](CC1CCCCC1)NC(=O)C(Cc1cscn1)NC(=O)[C@@H](CC(=O)N1CCN(c2ccccc2)CC1)Cc1cccc2ccccc12)NCCN1CCOCC1 (mixture of isomers) [Example 15, N-{N-[(2R)-2-(1-Naphthylmethyl)-3-(4-phenyl-1-piperazinylcarbonyl)propionyl]-3-(4-thiazolyl)-DL-alanyl}-cyclostatin-(2-morpholinoethyl)amide] | 96.3
O=C(C[C@H](O)[C@H](CC1CCCCC1)NC(=O)C(Cc1cscn1)NC(=O)[C@H](Cc1cccc2ccccc12)NC(=O)CCCN1CCOCC1)NCCN1CCOCC1 (mixture of isomers) [Example 42, N-55 N-[N-(4-Morpholinobutyryl)-3-(1-naphthyl -L-alanyl]-3-(4-thiazolyl)-DL-alanyl}-cyclostatin-(2-morpholinoethyl)amide] | 96.7
O=C(C[C@H](O)[C@H](CC1CCCCC1)NC(=O)C(Cc1cscn1)NC(=O)[C@H](Cc1cccc2ccccc12)NC(=O)CN1CCOCC1)NCCN1CCCC1 (mixture of isomers) [Example 43, N-{N-[N-Morpholinoacetyl-3-(1-naphthyl)-L-alanyl]-(4-thiazolyl)-DL-alanyl]-cyclostatin-2-(1-pyrrolidinylethyl)amide] | 91.2
O=C(C[C@H](O)[C@H](CC1CCCCC1)NC(=O)[C@H](Cc1ccno1)NC(=O)[C@@H](CC(=O)N1CCOCC1)Cc1cccc2ccccc12)NCCN1CCOCC1 [Example 3, N-{N-[(2R)-3-Morpholinocarbonyl-2-(1-naphthylmethyl)propionyl]-3-(5-isoxazolyl)-L-alanyl}-cyclostatin-(2-morpholinoethyl)amide] | 92.2
O=C(C[C@@H](Cc1cccc2ccccc12)C(=O)N[C@@H](Cc1cscn1)C(=O)N[C@@H](CC1CCCCC1)[C@@H](O)CC(=O)NCCN1CCOCC1)NCCc1ccccc1 [Example 13, N-{N-[(2R)-2-(1-Naphthylmethyl)-3-(phenethylcarbamoyl)propionyl]-3-(4-thiazolyl)-L-alanyl}-cyclostatin-(2-morpholinoethyl)amide] | 96.6
CCC(C)[C@@H](CO)NC(=O)C[C@H](O)[C@H](CC1CCCCC1)NC(=O)[C@H](Cc1cscn1)NC(=O)[C@@H](CC(=O)N1CCOCC1)Cc1cccc2ccccc12 (some centres unmarked) [Example 31] | 98.2
CCN(CC(=O)N[C@@H](Cc1cccc2ccccc12)C(=O)N[C@@H](Cc1cscn1)C(=O)N[C@@H](CC1CCCCC1)[C@@H](O)CC(=O)NCCN1CCOCC1)Cc1ccccc1 [Example 64, N-{N-[N-(N-Benzyl-N-ethylaminoacetyl)-3-(1-naphthyl)-L-alanyl]-3-(4-thiazolyl)-L-alanyl}-cyclostatin-(2-morpholinoethyl)amide] | 97.5
CC(C)N(CC(=O)N[C@@H](Cc1cccc2ccccc12)C(=O)N[C@@H](Cc1cscn1)C(=O)N[C@@H](CC1CCCCC1)[C@@H](O)CC(=O)NCCN1CCOCC1)Cc1ccccc1 [Example 65, N-{N-[N-(N-Benzyl-N-isopropylaminoacetyl)-3-(1-naphthyl)-L-alanyl]-3-(4-thiazolyl)-L-alanyl}-cyclostatin-(2-morpholinoethy)amide] | 97.4
COc1ccccc1N1CCN(CC(=O)N[C@@H](Cc2cccc3ccccc23)C(=O)N[C@@H](Cc2cscn2)C(=O)N[C@@H](CC2CCCCC2)[C@@H](O)CC(=O)NCCN2CCOCC2)CC1 [Example 66, N-[N-{N-[4-(2-Methoxyphenyl)-1-piperazinyl]acetyl-3-(1-naphthyl)-L-alanyl}-3-(4-thiazolyl)-L-alanyl]-cyclostatin-(2-morpholinoethyl)amide] | 95.7
CC(C)C[C@H](NC(=O)[C@H](Cc1cccc2ccccc12)NC(=O)CN(C)Cc1ccccc1)C(=O)N[C@@H](CC1CCCCC1)[C@@H](O)CC(=O)NCCCN1CCCC1=O [Example 73, N-{N-[N-(N-Benzyl-N-methylaminoacetyl)-3-(1-naphthyl)-L-alanyl]-L-leucyl}-cyclostatin-[3-(2-oxo-1-pyrrolidinyl)propyl]amide] | 97.7
CC[C@H](C)CNC(=O)C[C@H](O)[C@H](CC1CCCCC1)NC(=O)[C@H](Cc1cscn1)NC(=O)[C@H](Cc1cccc2ccccc12)NC(=O)CN1CCOCC1 [Example 98, N-{N-[N-Morpholinoacetyl-3-(1-naphthyl)-L-alanyl]-3-(4-thiazolyl)-L-alanyl}-cyclostatin-[(S)-2-methylbutyl]amide] | 98.1

The next lines start with the values.

Inhibitory Activity (%) | Compound
98.3 | CCC(C)CNC(=O)C[C@H](O)[C@H](CC1CCCCC1)NC(=O)[C@H](Cc1cscn1)NC(=O)[C@H](Cc1cccc2ccccc12)NC(=O)CN1CCOCC1 (mixture of isomers) [Example 109]
96.1 | CC[C@H](C)[C@@H](CN1CCOCC1)NC(=O)C[C@H](O)[C@H](CC1CCCCC1)NC(=O)[C@H](Cc1cscn1)NC(=O)[C@H](CC1CCCCC1)NC(=O)CN(C)Cc1ccccc1 [Example 100, N-{N-[N-(N-Benzyl-N-methylaminoacetyl)-3-cyclohexyl-L-alanyl]-3-(4-thiazolyl)-L-alanyl}-cyclostatin-[(1S,2S)-2-methyl-1-(morpholinomethyl)butyl]amide]
94.9 | CN(CC(=O)N[C@@H](CC1CCCCC1)C(=O)N[C@@H](Cc1cscn1)C(=O)N[C@@H](CC1CCCCC1)[C@@H](O)CC(=O)NCCN1CCOCC1)Cc1ccccc1 [Example 101, N-{N-[N-(N-Benzyl-N-methylaminoacetyl)-3-cyclohexyl-L-alanyl]-3-(4-thiazolyl)-L-alanyl}-cyclostatin-(2-morpholinoethyl)amide]
98.6 | CCCNC(=O)C[C@H](O)[C@H](CC1CCCCC1)NC(=O)[C@H](Cc1cscn1)NC(=O)[C@H](Cc1cccc2ccccc12)NC(=O)CN1CCOCC1 [Example 103, N-{N-[N-Morpholinoacetyl-3-(1-naphthyl)-L-alanyl]-3-(4-thiazolyl)-L-alanyl}-cyclostatin-propylamide]
98.6 | CCCCNC(=O)C[C@H](O)[C@H](CC1CCCCC1)NC(=O)[C@H](Cc1cscn1)NC(=O)[C@H](Cc1cccc2ccccc12)NC(=O)CN1CCOCC1 [Example 104, N-{N-[N-Morpholinoacetyl-3-(1-naphthyl)-L-alanyl]-3-(4-thiazolyl)-L-alanyl}-cyclostatin-butylamide]
98.0 | CC(C)CNC(=O)C[C@H](O)[C@H](CC1CCCCC1)NC(=O)[C@H](Cc1cscn1)NC(=O)[C@H](Cc1cccc2ccccc12)NC(=O)CN1CCOCC1 [Example 105, N-{N-[N-Morpholinoacetyl-3-(1-naphthyl)-L-alanyl]-3-(4-thiazolyl)-L-alanyl}-cyclostatin-isobutylamide]
98.2 | CC(C)CN(CC(C)C)C(=O)C[C@H](O)[C@H](CC1CCCCC1)NC(=O)[C@H](Cc1cscn1)NC(=O)[C@H](Cc1cccc2ccccc12)NC(=O)CN1CCOCC1 [Example 106]
98.4 | CCCCCNC(=O)C[C@H](O)[C@H](CC1CCCCC1)NC(=O)[C@H](Cc1cscn1)NC(=O)[C@H](Cc1cccc2ccccc12)NC(=O)CN1CCOCC1 [Example 107, N-{N-[N-Morpholinoacetyl-3-(1-naphthyl)-L-alanyl]-3-(4-thiazolyl)-L-alanyl}-cyclostatin-pentylamide]
98.6 | CC(C)CCNC(=O)C[C@H](O)[C@H](CC1CCCCC1)NC(=O)[C@H](Cc1cscn1)NC(=O)[C@H](Cc1cccc2ccccc12)NC(=O)CN1CCOCC1 [Example 108]
